Here are results for four compounds from ChEMBL document CHEMBL1201862, “PubChem BioAssay data set” (2004).

Assay [1] deals with Glyceraldehyde-3-phosphate dehydrogenase (Homo sapiens, UniProt P04406).
The target in assay [2] is T1, Bcl-2-related protein A1 (Mus musculus, UniProt Q07440).
T1 sequence (Q07440 whole entry): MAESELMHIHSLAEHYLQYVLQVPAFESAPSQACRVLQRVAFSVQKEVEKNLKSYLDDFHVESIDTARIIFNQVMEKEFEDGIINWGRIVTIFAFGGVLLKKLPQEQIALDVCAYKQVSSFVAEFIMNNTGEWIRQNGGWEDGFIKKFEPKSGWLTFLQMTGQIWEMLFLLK
Briefly: Bfl-1 inhibitors blocking BH3 peptide binding, confirmation, biochemical, TR-FRET, mouse Bfl-1 (AID 621).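 Also: TR-FRET binding of GST-Bfl-1 to FITC-labelled Bid peptide via terbium antibody.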 In general terms: Time-resolved FRET reads energy transfer from a long-lived donor to a nearby acceptor.

Assay [3] has as its target T1, Bcl-2-related protein A1. The assay can be described thus: Bfl-1 binding inhibitors, SAR follow-up, biochemical, fluorescence polarization (AID 1070). A general note: Polarisation of emitted light reports the rotation of a fluorescent probe.
A short description of assay [4]: inhibitors of firefly luciferase expression or activity, dose response, H4 neuroglioma cells, luminescence (AID 1990). The class given is functional, cell-based.
For assay [5], the system named is BJ. Briefly: cytotoxicity toward BJ-TERT fibroblasts, dose response, cell-based, RAS-independent, luminescence (AID 1933). The class given is functional. The note with it: Homo sapiens.
A short description of assay [6]: Luminescence Cell-Based Dose Response HTS to Identify Inhibitors of 5'UTR Stem-Loop Driven Prion Protein mRNA Translation in H4 Neuroglioblastoma Cells. [Related pubchem assays: 1827 (Project Summary), 1813 (Primary HTS)]. The class given is functional.
Assay [7] can be described thus: inhibitors of SNCA 5'UTR-driven reporter translation, confirmation, H4 neuroglioma cells, luminescence (AID 1988). Format: functional, cell-based.
Assay [8] deals with BJ. Briefly: cells. The class given is functional, cell-based. The note with it: Homo sapiens.
Assay [9] concerns BJ. The assay can be described thus: cytotoxicity toward BJ-TERT-LT-ST fibroblasts, dose response, cell-based, RAS-independent, luminescence (AID 1935).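 Also: BJ fibroblasts immortalized with TERT plus LT and ST oncogenes.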 The class given is functional. To be noted: Homo sapiens.
The nature of assay [10]: cytotoxicity toward DRD oncogenic fibroblasts, dose response, cell-based, non-viral oncogenic, luminescence (AID 1934). The note with it: Homo sapiens. The class given is functional.
Another assay addresses X-box-binding protein 1 (Homo sapiens, UniProt P17861). The class given is functional, Cricetulus griseus.
For assay [11], the system named is BJ. The assay can be described thus: cytotoxicity toward Ras-transformed BJeLR fibroblasts, dose response, cell-based, alamar blue fluorescence, cherrypicked samples (AID 2631).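 Also: confirmatory dose-response assay in RAS-dependent BJ fibroblasts engineered with TERT, LT and ST, with cytotoxicity read by fluorescence.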 Format: functional. The note with it: Homo sapiens.
Assay [12] has as its target Luciferin 4-monooxygenase (Photinus pyralis, UniProt P08659). Briefly: firefly luciferase enzyme inhibitors, dose response, biochemical, luminescence (AID 1891).
A short description of assay [13]: Luminescence Cell-Based Dose Confirmation HTS to Identify Inhibitors of Platelet Dense Granule Release. [Related pubchem assays: 1663 (Primary HTS), 1678 (Summary of Project)]. Format: functional.
For assay [14], the target named is T2, Calpain-2 catalytic subunit (Sus scrofa, UniProt P43367).
T2 sequence (P43367 whole entry): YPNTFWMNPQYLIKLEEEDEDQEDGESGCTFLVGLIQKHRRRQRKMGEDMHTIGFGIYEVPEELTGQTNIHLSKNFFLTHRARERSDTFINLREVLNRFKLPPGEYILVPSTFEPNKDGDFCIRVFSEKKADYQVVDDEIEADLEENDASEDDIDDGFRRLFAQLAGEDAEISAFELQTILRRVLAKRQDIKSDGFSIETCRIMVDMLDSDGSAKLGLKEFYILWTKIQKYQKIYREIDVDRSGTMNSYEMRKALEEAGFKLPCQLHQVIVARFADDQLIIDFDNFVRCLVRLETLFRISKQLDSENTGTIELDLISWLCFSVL
The assay can be described thus: pig calpain II inhibitor potency, dose response, biochemical, fluorogenic peptide substrate (AID 1420). Format: functional.

The next assay deals with Nonstructural protein 1 (Influenza A virus, UniProt Q194T2). The class given is functional, Influenza A virus (A/California/07/2009(H1N1)).
Chain of Nonstructural protein 1 (Q194T2 whole entry): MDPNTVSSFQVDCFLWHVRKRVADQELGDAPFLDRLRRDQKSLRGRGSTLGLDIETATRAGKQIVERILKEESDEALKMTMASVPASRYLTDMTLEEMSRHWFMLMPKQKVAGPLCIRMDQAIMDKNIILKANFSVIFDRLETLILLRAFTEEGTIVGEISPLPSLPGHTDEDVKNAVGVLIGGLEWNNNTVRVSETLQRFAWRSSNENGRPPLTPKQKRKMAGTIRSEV
A further assay deals with T3, Leucine aminopeptidase (Plasmodium falciparum 3D7, UniProt Q8IL11).
T3 sequence (Q8IL11 whole entry): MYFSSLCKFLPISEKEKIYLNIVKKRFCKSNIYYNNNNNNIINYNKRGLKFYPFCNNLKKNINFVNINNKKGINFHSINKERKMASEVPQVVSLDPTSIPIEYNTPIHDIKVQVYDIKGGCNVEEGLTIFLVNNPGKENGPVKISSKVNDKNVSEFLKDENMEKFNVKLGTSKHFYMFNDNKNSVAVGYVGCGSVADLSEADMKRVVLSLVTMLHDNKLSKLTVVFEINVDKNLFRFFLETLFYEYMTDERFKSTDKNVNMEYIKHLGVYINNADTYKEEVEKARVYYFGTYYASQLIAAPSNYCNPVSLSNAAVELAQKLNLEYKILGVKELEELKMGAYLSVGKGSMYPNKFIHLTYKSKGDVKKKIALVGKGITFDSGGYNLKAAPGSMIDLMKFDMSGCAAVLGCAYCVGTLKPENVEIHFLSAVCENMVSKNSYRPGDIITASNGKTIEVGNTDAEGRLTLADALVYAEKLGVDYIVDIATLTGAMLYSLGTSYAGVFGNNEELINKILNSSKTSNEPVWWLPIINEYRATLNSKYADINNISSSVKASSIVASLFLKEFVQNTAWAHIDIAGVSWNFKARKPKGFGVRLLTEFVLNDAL
The assay can be described thus: P. falciparum M17LAP inhibitors, primary screen, biochemical, fluorogenic H-Leu-NHMec substrate, 1536-well (AID 1619). Format: functional.

In the next assay the target is T4, Aminopeptidase N (Plasmodium falciparum FcB1/Columbia, UniProt O96935).
T4 sequence (O96935 whole entry): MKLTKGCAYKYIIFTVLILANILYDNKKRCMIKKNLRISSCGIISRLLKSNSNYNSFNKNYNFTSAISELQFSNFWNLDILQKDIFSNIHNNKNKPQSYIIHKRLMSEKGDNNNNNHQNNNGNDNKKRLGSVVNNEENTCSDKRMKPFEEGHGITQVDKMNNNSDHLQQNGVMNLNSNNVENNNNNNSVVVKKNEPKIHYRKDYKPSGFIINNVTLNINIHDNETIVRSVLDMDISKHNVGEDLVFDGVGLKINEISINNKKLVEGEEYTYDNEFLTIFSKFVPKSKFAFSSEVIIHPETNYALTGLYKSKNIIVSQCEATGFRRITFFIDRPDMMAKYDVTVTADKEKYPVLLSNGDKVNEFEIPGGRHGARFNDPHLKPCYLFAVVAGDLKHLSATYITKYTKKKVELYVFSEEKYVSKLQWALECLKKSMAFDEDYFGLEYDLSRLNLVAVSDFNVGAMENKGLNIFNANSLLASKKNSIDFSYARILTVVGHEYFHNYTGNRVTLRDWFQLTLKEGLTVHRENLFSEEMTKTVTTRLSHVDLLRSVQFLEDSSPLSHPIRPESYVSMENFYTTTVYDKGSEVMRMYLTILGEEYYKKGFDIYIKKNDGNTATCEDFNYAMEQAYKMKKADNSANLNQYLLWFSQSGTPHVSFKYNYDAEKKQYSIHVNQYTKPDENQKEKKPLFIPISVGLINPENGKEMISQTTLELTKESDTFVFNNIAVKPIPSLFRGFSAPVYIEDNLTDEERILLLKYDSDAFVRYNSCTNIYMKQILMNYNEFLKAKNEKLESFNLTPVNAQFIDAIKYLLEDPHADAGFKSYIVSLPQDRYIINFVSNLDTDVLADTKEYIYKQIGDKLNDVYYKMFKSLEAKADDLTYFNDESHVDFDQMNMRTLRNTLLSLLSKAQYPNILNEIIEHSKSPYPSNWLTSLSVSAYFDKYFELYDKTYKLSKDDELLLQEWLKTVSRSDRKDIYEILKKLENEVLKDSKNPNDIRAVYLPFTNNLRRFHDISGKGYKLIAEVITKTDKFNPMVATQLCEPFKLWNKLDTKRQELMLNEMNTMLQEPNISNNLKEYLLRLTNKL
The assay can be described thus: P. falciparum M1AAP inhibitors, biochemical, fluorogenic H-Leu-NHMec substrate, 1536-well (AID 1445). Set-up: species or system Plasmodium falciparum 3D7, 3D7.

The nature of assay [15]: inhibitors of Bluetongue virus cytopathic effect, confirmation, arbovirus, BSR cells (AID 1250).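 Also: protection from viral cytopathic effect measured as cell viability by ATP luminescence.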 The class given is functional.

Activity calls are given as the source filed them. Rule as the data show it, for most assays here: actives have a measured EC50 and inactives only a lower limit. Bounds are passed on as bounds.

As usually defined, the IC50 is the concentration that inhibits the measured activity by half. The EC50 is the concentration that produces a half-maximal response.
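For Absolute IC50 (XBP1) in this document: confirmatory dose-response counter-screen serving a CHOP assay.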

Chain of Luciferin 4-monooxygenase (P08659 whole entry): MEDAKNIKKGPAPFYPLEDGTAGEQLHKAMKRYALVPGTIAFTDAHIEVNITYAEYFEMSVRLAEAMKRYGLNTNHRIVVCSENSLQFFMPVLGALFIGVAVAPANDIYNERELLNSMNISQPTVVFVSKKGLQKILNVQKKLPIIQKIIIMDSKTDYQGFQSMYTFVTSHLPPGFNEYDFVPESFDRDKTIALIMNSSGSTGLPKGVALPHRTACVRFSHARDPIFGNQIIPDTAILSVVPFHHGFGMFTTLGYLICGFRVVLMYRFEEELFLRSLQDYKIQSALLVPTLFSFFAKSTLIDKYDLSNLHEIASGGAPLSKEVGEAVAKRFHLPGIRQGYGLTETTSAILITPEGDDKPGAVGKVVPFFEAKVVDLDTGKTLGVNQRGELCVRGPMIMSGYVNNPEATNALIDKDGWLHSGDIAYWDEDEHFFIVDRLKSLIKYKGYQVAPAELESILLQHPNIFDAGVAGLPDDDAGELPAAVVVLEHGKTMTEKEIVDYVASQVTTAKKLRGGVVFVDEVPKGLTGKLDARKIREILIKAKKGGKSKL
Chain of X-box-binding protein 1 (P17861 whole entry): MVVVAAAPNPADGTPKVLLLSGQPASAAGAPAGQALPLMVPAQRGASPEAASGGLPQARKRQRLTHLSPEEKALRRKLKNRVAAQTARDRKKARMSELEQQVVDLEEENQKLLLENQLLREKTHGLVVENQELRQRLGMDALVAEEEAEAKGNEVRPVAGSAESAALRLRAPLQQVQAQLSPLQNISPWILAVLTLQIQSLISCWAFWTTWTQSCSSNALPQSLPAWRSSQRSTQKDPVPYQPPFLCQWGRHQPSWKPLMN
Chain of Glyceraldehyde-3-phosphate dehydrogenase (P04406 whole entry): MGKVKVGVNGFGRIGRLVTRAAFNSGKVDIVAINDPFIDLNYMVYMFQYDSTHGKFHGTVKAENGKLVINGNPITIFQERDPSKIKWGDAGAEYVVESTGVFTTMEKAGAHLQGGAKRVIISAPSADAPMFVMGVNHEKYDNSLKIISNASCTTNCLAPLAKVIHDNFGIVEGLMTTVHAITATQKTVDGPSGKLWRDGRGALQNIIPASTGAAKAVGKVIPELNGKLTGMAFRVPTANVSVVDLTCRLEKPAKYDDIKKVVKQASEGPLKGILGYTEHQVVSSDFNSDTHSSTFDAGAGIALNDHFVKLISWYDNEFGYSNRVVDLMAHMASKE

Take `CN1CCN(C2=C(Cl)C(=O)N(c3cccc(Cl)c3Cl)C2=O)CC1`: the IC50 in [1] is > 100 µM (not active); on Bcl-2-related protein A1 [2], 2.56 µM (active); on Bcl-2-related protein A1 [3] it was 8.74 µM (active).

In the case of `Cc1ccc(-c2nn(CC(=O)NCc3cc(-c4nn(C)c(=O)c5ccccc45)ccc3C)c(=O)c3ccccc23)cc1`, the half-maximal effective concentration (EC50) was 8.15 µM (active) in assay [4]; 4.25 µM (active) in the assay on BJ [5]; 6.28 µM (active) in assay [6]; 6.81 µM (active) in [7]; 8.99 µM (active) in the assay on BJ [8]; 5.6 µM (inconclusive) with BJ [9]. In addition, the EC50 is 6.29 µM (inconclusive) in assay [10] and > 133 µM (inactive) in the assay with BJ [11]. The “Absolute IC50 (XBP1)” value on X-box-binding protein 1 is 10 µM.

As to `CCN(CC)c1ccc(/C=C(\C#N)C(N)=S)cc1`, the figures for the concentration for a half-maximal effect (EC50) in assay [12] and in assay [13] were 22.7 µM (active) and > 112 µM (not active), respectively. The figures for the half-maximal inhibitory concentration (IC50) (in assay [14]; at Nonstructural protein 1) were 5.92 µM (not active) and 39.1 µM (active), respectively.

In the case of `CC(C)S(=O)(=O)C1=NSC2=NC(=O)/C(=C\c3ccc(-c4ccccc4)o3)C(=N)N21`, the IC50 is 12.6 µM (active) at Leucine aminopeptidase, 45.6 µM (active) at Aminopeptidase N and 27.1 µM (active) in assay [15].
